Assay results published in patent US20150196520A1, “METHOD AND PHARMACEUTICAL COMPOSITION FOR TREATING DERMATOPHYTOSIS” (priority 2012, published 2015).
Like-named read-outs stand apart in the source and are kept apart here.

What was measured:
[1] = system: tinea corporis; assay: Topical treatment of tinea corporis, case reports; format: in vivo, humans; conditions: for healing of tinea corporis: Example 10: 0.01% test solutions
Source text: (§1) The compounds of the present invention were investigated with respect to the treatment of dermatomycosis affecting humans. […] The cases of tinea used in the investigation involved selection of various types of tinea such as vesicular-type tinea, interdigital-type tinea, hyperkeratotic tinea, tinea corporis, tinea unguium, etc.
(§2) The dermatophytes that cause dermatophytosis, a typical form of dermatomycosis, are mainly Trichophyton rubrum and Trichophyton mentagrophytes. […] This confirmation of dermatophytes involved planting a sample of skin or nail of an area affected with tinea in a Candida nutrient medium (Nissui Pharmaceutical Co., Ltd.), isolating the dermatophytes that grow, and then confirming the dermatophytes through gene analysis or observation of morphology. A more detailed description of the fungus identification is provided in the examples.
A 1% test solution of ethylenediaminetetraacetic acid trisodium salt prepared in the same manner as Example 6 was applied by spraying once a day onto an area, approximately 5 cm wide and 3 cm long, of a chest affected by tinea corporis, which was denoted by flaring redness.
To 119 mg of ethylenediaminetetraacetic acid tetrasodium salt tetrahydrate was added 20% ethanol to prepare 1 L of 0.01% test solution. This test solution was applied by spraying, three times a day, to tinea corporis denoted by red flaring ridges that had occurred on the thigh.

[2] = JECFA evaluation of food additives; cited from earlier work
[3] = system: T. mentagrophytes IFM 59813; assay: CLSI broth microdilution drug-sensitivity test; format: cell-based, Trichophyton mentagrophytes
Method: (§3) The antimicrobial activity of the pharmaceutical composition for dermatomycosis according to the present invention was evaluated through drug-susceptibility tests against major pathogenic fungi performed in compliance with the guidelines of the Clinical Laboratory Standards Institute (CLSI), USA. The pathogenic fungi selected were genus Tricophyton (T. rubrum, T. mentagrophytes, T. tonsurans), genus Microsporum (M. gypseum), genus Epidermophyton (E. floccosum), genus Candida (C. albicans), genus Aspergillus (A. fumigatus), and genus Cryptococcus (C. neoformans). […] In the drug-susceptibility tests, Mg ions and Ca ions necessary for conidia (spores) of the fungus to germinate growth were included in the nutrient medium.
(§4) The antifungal activity of the compounds of the present invention was evaluated by performing drug-sensitivity tests against various pathogenic fungi. The testing method was a broth microdilution method in conformance with the guidelines of the Clinical Laboratory Standards Institute (CLSI), USA.

[4] = system: C. neoformans IFM5807; assay: CLSI broth microdilution drug-sensitivity test; format: cell-based
Method: as §3, §4

[5] = system: C. albicans IFM 5740; assay: CLSI broth microdilution drug-sensitivity test; format: cell-based
Method: as §3, §4

[6] = system: A. fumigatus IFM4942; assay: CLSI broth microdilution drug-sensitivity test; format: cell-based
Method: as §3, §4

[7] = system: M. gypseum IFM 59816; assay: CLSI broth microdilution drug-sensitivity test; format: cell-based
Method: as §3, §4

[8] = system: M. furfur; assay: Malassezia drug sensitivity test (Sugita et al., mLNA medium); format: cell-based
Method: as §3
(§5) The antifungal activity of the compounds of the present invention against Malassezia spp. was evaluated in drug sensitivity tests against human-related genus Malassezia species, performed in compliance with the methodology of Sugita et al. (2005). The test drug and mLNA nutrient medium were added to the wells of a 24-well microtiter plate with a total quantity of 2 mL. A 50 μL microbe suspension with a concentration of approximately 1×10^4 cell/mL was added to the medium, which was cultured aerobically for 7 days at 32° C. In comparison to the control (no test drug), the density required to completely prevent growth was set as the minimum inhibitory concentration (MIC).

[9] = system: tinea unguium; assay: Treatment of tinea unguium, case reports; format: in vivo, humans
[10] = system: T. rubrum IFM 59814; assay: CLSI broth microdilution drug-sensitivity test; format: cell-based, Trichophyton rubrum
Method: as §3, §4

[11] = system: E. floccosum IFM 53345; assay: CLSI broth microdilution drug-sensitivity test; format: cell-based, Epidermophyton floccosum
Method: as §3, §4

[12] = system: tinea glabrosa; assay: Topical treatment of tinea glabrosa, case reports; format: in vivo, humans
Method: Dermatomycosis includes dermatophytosis, cutaneous candidiasis, and malasseziosis. As time progresses with these diseases, a variety of fungi will parasitize the site.
To 2.4 g of calcium benzoate trihydrate was added water to prepare 200 g of a 1% test solution. This solution was atomized twice a day for tinea glabrosa denoted by redness on the abdominal region.
This red papule was treated twice a day with a 2% solution of ethylenediaminetetraacetic acid trisodium salt prepared in the same manner as in Example 5.

[13] = system: interdigital tinea; conditions: Example 7: 2% test solution sprayed once daily between toes; Trichophyton rubrum
[14] = system: small red papules
Source text: Dermatophyte was isolated from the papules in this case, and was confirmed through gene analysis to be Trichophyton mentagrophytes.

[15] = system: M. restricta; assay: organism not typed; conditions: 168 h
Method: as §3, §5

[16] = system: M. slooffiae; assay: organism not typed; conditions: 168 h
Method: as §3, §5

[17] = system: M. sympodialis; assay: organism not typed; conditions: 168 h
Method: as §3, §5

[18] = system: M. yamatoensis; assay: organism not typed; conditions: 168 h
Method: as §3, §5

[19] = system: M. dermatitis; assay: organism not typed; conditions: 168 h
Method: as §3, §5

[20] = system: M. japonica; assay: organism not typed; conditions: 168 h
Method: as §3, §5

[21] = system: M. obtusa; assay: organism not typed; conditions: 168 h
Method: as §3, §5

[22] = system: Malassezia infection; conditions: Example 14: 1% test solution applied twice a day, lower-left abdomen
[23] = system: M. globosa; assay: microbe, parasite or virus in culture; conditions: Malassezia globosa, 168 h
Method: as §3
as §5, with “In comparison to the control (no test drug), the density required to completely prevent growth was set as the minimum inhibitory concentration (MIC).” left out

[24] = system: hyperkeratotic tinea; assay: Topical treatment of hyperkeratotic tinea, case reports; format: in vivo, humans
Source text: as §1, §2

[25] = Trichophyton mentagrophytes, IFM59813
[26] = T. mentagrophytes IFM 59813, broth microdilution
[27] = Cryptococcus neoformans, IFM5807
[28] = Epidermophyton floccosum, IFM53345
[29] = Example 11: 2% test solution, big toe immersed in fingerstall, Trichophyton rubrum

O=C([O-])CN(CCN(CC(=O)O)CC(=O)O)CC(=O)[O-].[Na+].[Na+] [ethylenediaminetetraacetic acid disodium salt]
healing of tinea corporis [1]: heal tinea corporis
permissible daily intake [2]: ≤ 2.5 mg per 1 kg of body weight
MIC [3, 25]: 78 µg/mL

O=C([O-])c1ccccc1.O=C([O-])c1ccccc1.[Mg+2] [magnesium benzoate]
MIC [3, 26]: 780 µg/mL

O=C([O-])CN(CCN(CC(=O)[O-])CC(=O)[O-])CC(=O)[O-].[Mg+2].[Na+].[Na+] [ethylenediaminetetraacetic acid magnesium disodium salt]
MIC [3, 25]: 78 µg/mL

O=C([O-])c1ccccc1.[Na+] [sodium benzoate]
healing of tinea corporis [1]: heal tinea corporis
MIC ([4]; C. neoformans IFM5807, broth microdilution): 1600 µg/mL
MIC ([5]; C. albicans IFM 5740, broth microdilution): 6300 µg/mL
MIC ([6]; A. fumigatus IFM4942, broth microdilution): 3100 µg/mL
MIC ([7]; M. gypseum IFM 59816, broth microdilution): 1600 µg/mL
MIC ([8]; M. furfur, 7 days at 32° C., complete prevention of growth): 310 µg/mL
time until healthy nail restored ([9]; Example 13: 1% test solution in 20% ethanol, thumb nail soaked in fingerstall one day, 10 times): about 3 months
MIC ([10]; T. rubrum IFM 59814, broth microdilution): 390 µg/mL
MIC ([11]; E. floccosum IFM 53345, broth microdilution): 200 µg/mL
MIC [3, 26]: 200 µg/mL

CCC(C)n1ncn(-c2ccc(N3CCN(c4ccc(OCC5COC(Cn6cncn6)(c6ccc(Cl)cc6Cl)O5)cc4)CC3)cc2)c1=O (stereo not drawn) [Itrizole, reference compound]
outcome of oral therapy of tinea unguium ([9]; Example 16: oral therapy, left-foot big-toe toenail): ineffective

O=C([O-])CN(CCN(CC(=O)[O-])CC(=O)O)CC(=O)[O-].[K+].[K+].[K+] [ethylenediaminetetraacetic acid tripotassium salt]
MIC [3, 25]: 78 µg/mL

O=C([O-])c1ccccc1.O=C([O-])c1ccccc1.[Ca+2] [calcium benzoate]
curative effect against tinea of the skin ([12]; 1% aqueous solution (Example 15)): showed a curative effect
time until skin symptoms disappeared (tinea eliminated) ([12]; Example 15: 1% test solution in water atomized twice a day, abdominal region): about two

C/C=C/C=C/C(=O)[O-].[K+] [potassium sorbate]
healing of tinea corporis [1]: heal tinea corporis
MIC [4, 27]: 200 µg/mL
MIC ([5]; Candida albicans, IFM5740): 3100 µg/mL
MIC ([6]; Aspergillus fumigatus, IFM4942): 780 µg/mL
MIC ([7]; Nannizzia gypsea, IFM59816): 780 µg/mL
MIC ([8]; Malassezia furfur, 168 h): 310 µg/mL
time until healthy nail regained ([9]; Example 13: 1% test solution (1% glycerin, 15% ethanol), big-toe toenail immersed 1 hour a day): about 9 months
MIC ([10]; Trichophyton rubrum, IFM59814): 780 µg/mL
MIC [11, 28]: 200 µg/mL
MIC [3, 25]: 390 µg/mL

C/C=C/C=C/C(=O)[O-].[Na+] [sodium sorbate]
MIC ([3]; Trichophyton mentagrophytes, IFM59813, T. mentagrophytes IFM 59813, broth microdilution, read-out: MIC): 780 µg/mL

O=C([O-])CN(CCN(CC(=O)[O-])CC(=O)[O-])CC(=O)[O-].[Na+].[Na+].[Na+].[Na+] [ethylenediaminetetraacetic acid tetrasodium salt]
time until redness disappeared (tinea cured) ([1]; Example 10: 0.01% test solution in 20% ethanol sprayed three times a day, thigh): approximately 2 weeks
time until healthy nail grew from the nail base [9, 29]: approximately 2 months
time until recovery complete with a healthy nail [9, 29]: 6 months
time until skin symptoms disappeared and healthy skin returned [13]: approximately 2 months
MIC [3, 25]: 39 µg/mL

O=C([O-])c1ccccc1.[K+] [potassium benzoate]
MIC [3, 26]: 780 µg/mL

O=C([O-])CN(CCN(CC(=O)[O-])CC(=O)O)CC(=O)[O-].[Na+].[Na+].[Na+] [ethylenediaminetetraacetic acid trisodium salt]
time until red papules cured completely ([12]; Example 23: 2% solution once or twice a day, thigh, abdomen, breast or back, Aspergillus tubingensis, Basidiomycete and other fungi): 1-2 weeks
time until complete cure of red papule ([12]; Example 23: 2% solution twice a day, back of head, Aspergillus japonicus): two
time until red flaring disappeared and healthy skin returned ([1]; Example 8: 1% test solution sprayed once a day, chest, Trichophyton mentagrophytes): approximately 2 weeks
time until skin symptoms disappeared or cicatrized (tinea corporis healed) ([1]; Example 9: 1% test solution sprayed once a day, left thigh, considered M. canis): approximately one
healing of tinea corporis [1]: heal tinea corporis
time until papules disappeared, completely healed ([14]; Example 18: 2% test solution sprayed twice a day, scalp at back of head): 2 weeks
time until papules disappeared, completely healed ([14]; Example 19: 2% test solution sprayed twice a day, back of right thigh, Trichophyton mentagrophytes): 10 days
MIC [4, 27]: 9.8 µg/mL
MIC ([5]; Candida albicans, IFM5740): 0.2 µg/mL
MIC ([6]; Aspergillus fumigatus, IFM4942): 9.8 µg/mL
MIC ([7]; Nannizzia gypsea, IFM59816): 78 µg/mL
MIC ([8]; Malassezia furfur, 168 h): 63 µg/mL
MIC [15]: 31 µg/mL
MIC [16]: 63 µg/mL
MIC [17]: 63 µg/mL
MIC [18]: 63 µg/mL
MIC [19]: 31 µg/mL
MIC [20]: 63 µg/mL
MIC [21]: 31 µg/mL
time until light-brown area disappeared [22]: approximately 3 weeks
time until healthy skin and nail recovered ([9]; Example 12: 2% test solution, little finger soaked in fingerstall at bedtime, T. mentagrophytes and Candida): 2 months
outcome of tinea unguium treatment ([9]; Example 16: 2% test solution sprayed twice a day, big-toe toenail refractory to oral Itrizole): curing the tinea
time until tinea unguium cured ([9]; Example 20: 3% test solution sprayed twice a day, little-toe toenail, Trichophyton rubrum): approximately 8 months
time until healthy nail recovered ([9]; Example 22: 10% test solution in water applied once a day, right thumb nail, Trichophyton rubrum): about one
time until healthy nail restored ([9]; Example 23: 20% test solution (glycerin, water) applied twice a day, right thumbnail, Trichophyton rubrum): about 1 year
MIC [23]: 63 µg/mL
time until hyperkeratotic-type tinea eliminated and clean skin recovered ([24]; Example 5: 2% test solution (glycerin, 15% ethanol), sprayed twice daily, sole of foot, T. mentagrophytes and Candida isolated): approximately 2 months
time until tinea eliminated and healthy skin returned ([24]; Example 6: 1% test solution, foot immersed 1 hour a day): about one and a half
time until infected area entirely replaced by healthy skin ([24]; Example 17: 2% test solution sprayed twice a day, base of toes to arch, Trichophyton rubrum): approximately 6 months
time until complete recovery of healthy skin ([24]; Example 21: 5% test solution sprayed twice a day, left and right heels, Trichophyton rubrum): 3 months
MIC ([10]; Trichophyton rubrum, IFM59814): 39 µg/mL
MIC [11, 28]: 78 µg/mL
MIC [3, 25]: 78 µg/mL
